Laboratory results from patent US7279325B2, “Method for identifying antagonist compounds of the estrogen-related receptor 3 (ERR3) by using the x-ray structural coordinates of the ligand binding domain” (priority 2002, dated 2007).

Tests used:
[1] = biological target: T1, mutant ERR3 LBDs (A272F, A272L, F435L, L345I, L345I-F435L, L345I-F435L-F450L)/GST-SRC-1 RID complex (Homo sapiens, UniProt P62508, F435L); test: In vitro protein-protein interaction assay, mutant ERR3 LBDs with SRC-1 RID (native gels); type: biochemical; details: 10^−4M 4-OHT
T1 construct: wt or mutant ERR3 LBDs (residues 229 to 458, human and murine receptor are identical); made in house; host or cells: E. coli BL21(DE3)
T1 sequence (P62508 229-458 F435L): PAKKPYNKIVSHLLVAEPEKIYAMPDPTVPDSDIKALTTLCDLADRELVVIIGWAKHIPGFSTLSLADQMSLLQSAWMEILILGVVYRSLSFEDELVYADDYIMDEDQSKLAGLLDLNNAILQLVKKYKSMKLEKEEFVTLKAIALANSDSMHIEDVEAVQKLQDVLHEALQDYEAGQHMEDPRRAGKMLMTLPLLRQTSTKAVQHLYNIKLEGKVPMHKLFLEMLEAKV
Procedure: (§1) The His-tagged wt or mutant ERR3 LBDs, the GST-tagged SRC-1 RID, and GST were expressed in E. coli BL21(DE3) and partially purified by affinity chromatography using TALON (Clontech) or Glutathione Sepharose 4B (Pharmacia), respectively. […] After purification the proteins were dialyzed in assay buffer (20 mM Tris.HCl pH 8.0, 200 mM NaCl), and concentrated. For the protein-protein interaction assays […] (about 70 pmol) of His-tagged wt or mutant ERR3 LBD were mixed with […] (about 100 pmol) of GST-tagged SRC-1 RID or […] of GST and incubated on ice for 10 mins. […] Protein complexes were resolved on native polyacrylamide gradient gels (8%-25%) using the Phast System (Pharmacia).
(§2) In vitro interaction assays with the RID (amino acids 617-764) of the coactivator SRC-1 has first been performed. Hexahistidine (His)-tagged ERR3, LBD and GST-tagged SRC-1 RID were partially purified by affinity chromatography, the proteins were mixed, and complex formation was monitored on native polyacrylamide gels. […] Complexes were separated on native polyacrylamide gradient gels.
(§3) In addition, the ligand-binding pocket of ERR3 has been enlarged by either mutating F435 to leucine or by introducing a triple point mutation (L345I-F435L-F450L) which creates an “ERα-like” ligand-binding pocket.

[2] = tested on: mutant ERR3 LBDs (A272F, A272L, F435L, L345I, L345I-F435L, L345I-F435L-F450L)/GST-SRC-1 RID complex; test: as above; type: biochemical, human
Procedure: as §1, §2, §3

ERR1 = biological target: T2, ERR1 (Homo sapiens, UniProt P11474); details: Coward et al. (2001); cited from earlier work
T2 sequence (P11474 1-423): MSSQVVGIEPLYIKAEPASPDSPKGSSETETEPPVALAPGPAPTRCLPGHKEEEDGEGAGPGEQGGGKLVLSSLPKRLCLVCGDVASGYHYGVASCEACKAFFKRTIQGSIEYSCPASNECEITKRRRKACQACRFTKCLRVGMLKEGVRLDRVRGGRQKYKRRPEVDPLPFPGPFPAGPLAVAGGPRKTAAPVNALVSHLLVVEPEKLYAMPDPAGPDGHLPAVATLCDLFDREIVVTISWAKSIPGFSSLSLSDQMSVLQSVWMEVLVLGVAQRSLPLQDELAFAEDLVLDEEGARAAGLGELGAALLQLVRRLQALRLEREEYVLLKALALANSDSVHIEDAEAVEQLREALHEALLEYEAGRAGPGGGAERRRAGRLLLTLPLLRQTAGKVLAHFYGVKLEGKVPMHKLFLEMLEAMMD

ERR2 = biological target: T3, ERR2 (Homo sapiens, UniProt O95718); details: Coward et al. (2001); cited from earlier work
T3 sequence (O95718 1-433): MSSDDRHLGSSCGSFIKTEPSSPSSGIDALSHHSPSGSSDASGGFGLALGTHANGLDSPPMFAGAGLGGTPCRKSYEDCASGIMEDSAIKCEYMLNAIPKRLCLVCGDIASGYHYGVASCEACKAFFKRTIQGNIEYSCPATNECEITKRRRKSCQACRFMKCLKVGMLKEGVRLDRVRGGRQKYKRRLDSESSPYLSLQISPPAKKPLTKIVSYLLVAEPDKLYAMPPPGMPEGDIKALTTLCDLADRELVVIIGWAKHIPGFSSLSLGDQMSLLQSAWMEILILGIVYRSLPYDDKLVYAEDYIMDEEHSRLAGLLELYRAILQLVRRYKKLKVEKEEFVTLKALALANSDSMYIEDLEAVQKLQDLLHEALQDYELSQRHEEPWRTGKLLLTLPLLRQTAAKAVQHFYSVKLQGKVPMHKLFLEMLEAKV

ERR3 = biological target: T4, ERR3 (Homo sapiens, UniProt P62508); details: Coward et al. (2001); cited from earlier work
T4 sequence (P62508 1-458): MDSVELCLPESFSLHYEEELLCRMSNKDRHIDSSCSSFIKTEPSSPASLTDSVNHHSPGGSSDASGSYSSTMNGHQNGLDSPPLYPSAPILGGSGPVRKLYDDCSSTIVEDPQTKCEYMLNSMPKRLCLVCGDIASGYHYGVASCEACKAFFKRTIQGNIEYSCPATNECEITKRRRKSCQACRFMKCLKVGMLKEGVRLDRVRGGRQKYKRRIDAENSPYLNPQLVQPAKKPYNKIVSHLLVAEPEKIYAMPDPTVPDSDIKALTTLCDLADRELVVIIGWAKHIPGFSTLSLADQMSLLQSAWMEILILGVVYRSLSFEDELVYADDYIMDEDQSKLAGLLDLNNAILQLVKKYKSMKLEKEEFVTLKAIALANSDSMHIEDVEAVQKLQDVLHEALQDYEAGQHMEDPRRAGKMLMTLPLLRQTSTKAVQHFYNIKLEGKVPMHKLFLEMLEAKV

4-hydroxytamoxifen [4-OHT]
effect on the ERR3(F435L)/GST-SRC-1 RID complex [1]: still disrupted | effect on the complex between GST-SRC-1 RID and the mutants A272F or A272L ([2]; 10^−4M 4-OHT, ligand-binding cavity filled up): no effect | antagonist effect on ERR3 LBD mutants that contain a F435L mutation (F435L, L345I-F435L, L345I-F435L-F450L) in vitro ([2]; 10^−4M ligand): still acts as an antagonist | binding to ERR1 (ERR1): does not bind | binding to ERR2 (ERR2): binds | affinities of binding to ERR3 (ERR3): submicromolar
